Substitutions are numbered along the chain they refer to.
biological target: T1, IL1R-I29C (Homo sapiens, UniProt P14778); test: SPR ranking of reversible covalent (disulfide) bond formation with immobilized protein-thiolate (Examples 5-6); format: binding; settings: disulfide compound 100 μM, reductant 500 μM; fraction of protein-thiolate on the chip covalently bound
T1 construct: soluble interleukin-1 receptor, type 1 having a mutation to cysteine; made in house; host or cells: E. coli or baculovirus-infected insect cells (TN-5B1-4, High Five)
T1 sequence (P14778 18-336 E146C): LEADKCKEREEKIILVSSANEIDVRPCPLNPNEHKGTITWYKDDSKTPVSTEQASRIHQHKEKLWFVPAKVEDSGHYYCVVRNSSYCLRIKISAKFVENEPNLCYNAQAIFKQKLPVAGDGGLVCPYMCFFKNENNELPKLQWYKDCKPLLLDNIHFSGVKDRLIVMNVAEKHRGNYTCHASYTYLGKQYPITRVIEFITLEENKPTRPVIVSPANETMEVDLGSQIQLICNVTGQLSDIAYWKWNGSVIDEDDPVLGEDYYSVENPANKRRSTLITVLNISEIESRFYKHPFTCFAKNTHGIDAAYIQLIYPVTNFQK
Experimental: (§1) A CM5 sensor chip (Biacore-BR-1000-14) is docked in a Biacore 2000 SPR device, and the chip is normalized using a standard Biacore protocol with 70% glycerol. The chip is equilibrated in PBS for approximately 1 hr at a 20 μL/min flow rate. The dextran surface of the chip is activated through an NHS/EDC coupling. This is done using an amine coupling kit (Biacore—BR-100-50) containing N-hydroxysuccinimide (NHS 11.5 mg/mL) and N-ethyl-N′-(3-dimethylaminopropyl) carbodiimide hydrochloride (EDC 75 mg/mL). The two reagents are mixed in a 1:1 ratio and then 35 μL of the mixture are injected at 5 μL/min. The chip is activated one flow cell at a time, and that flow cell is subsequently labeled with protein.
(§2) Protein having at least one cysteine is expressed in E. coli or baculovirus-infected insect cells (TN-5B1-4, High Five) and purified using standard procedures. This protein-thiolate is treated with 10 mM βME overnight to reduce the surface cysteine. The βME is removed and the protein-thiolate is placed in 100 mM MES Buffer pH 5.75 (Nap-5 column, Pierce). The protein-thiolate is then concentrated to 100 μM using a Millipore-UFV5BCCOO 5K NMWL membrane, 0.5 mL centrifugal filter and tube.
(§3) A sensorgram is then run over the activated flow cell at 2 μL/min of PBS. The protein-thiolate solution is then injected at 2 μL/min for 10 min. After injection one measures the change in RUs by marking the RUs at t=0 and t final and subtracting them. This subtraction gives the total RU change that is related to the total mass of protein successfully coupled to the CM5 surface. This value will later be used to determine stoichiometry of binding. This procedure is then repeated with various cysteine mutants that are immobilized on the adjacent cells. The sensorgram is then altered to flow across all 4 cells on the CM5 chip at 5,L/min PBS. A solution of 1 M ethanolamine hydrochloride-NaOH pH 8.5 (Amine coupling kit, Biacore—BR-100-50) is injected at 5 μL/min for 7 min. The chip is equilibrated overnight in 100 mM Tris pH 8+0.05% azide+1% DMSO at 20 μL/min.
(§4) Compounds are synthesized with a reactive disulfide linker (see, for example compound 2t in Example 2). From previous “tethering” experiments compounds that preferentially bind and form a covalent bond with specific cysteine mutants at the active sites of proteins are chosen for these SPR experiments. The compounds are known to form this covalent attachment at relatively high levels of reductant [βME (2-mercaptoethanol, Sigma)], indicating a […] noncovalent binding interaction.
(§5) Dilutions series of the compounds are typically performed to produce seven solutions with compound concentrations of 50 mM, 25 mM, 12.5 mM, 6.25 mM, 3.12 mM, 1.56 mM, and 0.78 mM in DMSO, with a final eighth point as a DMSO only baseline. The compounds are then diluted into 100 mM Tris pH 8+0.05% azide+500 μM βME, to final compound concentrations of 500 μM, 250 μM, 125 μM, 62.5 μM, 31.2 μM, 15.6 μM, and 7.8 μM. The compound solutions are injected from lowest concentration to highest at 2 μL/min for 20 min. The SPR software method includes a 1 min wash before injection, the injection and then a 10 min wash after the injection. This particular protocol employs a regeneration step to reduce off the compound that is covalently bound before the next injection. The regeneration is accomplished by injecting 10 mM βME at 2 μL/min for 20 min.
(§6) These dilution series are analyzed by BIAevaluation software version 3.0. Sensorgrams are plotted for compound binding to cells of the chip labeled with protein-thiolate. The sensorgrams are modified by subtracting the sensorgrams for the appropriate compound dilutions over cell 1 (a blank cell). This subtraction step removes any RU changes that might occur due to nonspecific interactions between the compound and the chip itself or refractive changes in the buffer. Finally, the eight sensorgrams produced from the compound dilution series are zeroed at the average of their starting RUs. […]

`CC(=O)c1ccccc1NC(=O)c1ccc(NC(=O)CSSCCN)cc1` [Compound 12t] and `COC(=O)c1cccc(NC(=O)c2ccc(NC(=O)CSSCCN)cc2)c1` [Compound 13t] are the same in “Fraction bound IL1R-I29C” value: 0.0 for the first, 0.0 for the second.

First: NCCSSCCC(=O)NC(c1ccccc1)c1cc2ccccc2cn1 (centres unmarked) [Compound 14t]
Second: COc1cc(C(=O)N2CCCC(C(=O)NCCSSCCN)C2)ccc1O (centres unmarked) [Compound 15t]
The “Fraction bound IL1R-I29C” value of the first is higher: 0.6 for the first, 0.2 for the second.

biological target: T2, IL1R-I13C (Homo sapiens, UniProt P14778, I30C); test: as above; format: binding; settings: disulfide compound 100 μM, reductant 500 μM; fraction of protein-thiolate on the chip covalently bound
T2 construct: soluble interleukin-1 receptor, type 1 having a mutation to cysteine; made in house; host or cells: E. coli or baculovirus-infected insect cells (TN-5B1-4, High Five)
T2 sequence (P14778 18-336 I30C): T1 sequence (P14778 18-336 E146C) with I13C, C129E
Experimental: as §1, §2, §3, §4, §5, §6

Compared with `CC(=O)c1ccccc1NC(=O)c1ccc(NC(=O)CSSCCN)cc1` [Compound 12t], `COC(=O)c1cccc(NC(=O)c2ccc(NC(=O)CSSCCN)cc2)c1` [Compound 13t] is lower in “Fraction bound IL1R-I13C” value: 0.5 for the first, 0.0 for the second.

`NCCSSCCC(=O)NC(c1ccccc1)c1cc2ccccc2cn1` (centres unmarked) [Compound 14t] and `COc1cc(C(=O)N2CCCC(C(=O)NCCSSCCN)C2)ccc1O` (centres unmarked) [Compound 15t] are the same in “Fraction bound IL1R-I13C” value: 0.0 for the first, 0.0 for the second.
